Experimental data reported in the supplement of paper PMC9386025.

These molecules were tested on JHOS2 (assay: drug sensitivity score (DSS) (DSS (dimensionless)); higher = more sensitive (stronger drug response)). Conditions: genetic perturbation: DOX-induced PTK7 shRNA knockdown.
Outline: (§1)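 Drugs were pre-plated in 384-well plates at five concentrations covering a 10,000-fold range, and 1 000 – 1 500 cells per well were added from patient-derived cultures or from ovarian cancer cell lines whose shRNA had been induced with 100 ng/ml doxycycline for three days or longer. Incubation lasted three days at 37 °C under 5.0 % CO2. A PHERAstar FS then recorded CellTiter-Glo luminescence as the readout of viability. A drug sensitivity score, calculated as described before, summarised the dose-response curve of every drug.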

Structure (SMILES) | drug sensitivity score
CON(C)C(=O)N1N=C(c2cc(F)ccc2F)S[C@@]1(CCCN)c1ccccc1 [Filanesib] | 9.2
CCCCCCCCc1ccc(CCC(N)(CO)CO)cc1 [Fingolimod] | 7.1
O=c1[nH]c(=O)n([C@H]2C[C@H](O)[C@@H](CO)O2)cc1F [Floxuridine] | < 0
O=C(NOCCO)c1ccc2cncn2c1Nc1ccc(I)cc1F [GDC-0623] | < 0
CCOC(=O)CCNc1cc(N2CCc3ccccc3CC2)nc(-c2ccccn2)n1 [GSK-J4] | 0.7
Cc1cc(Nc2cc(CN3CCOCC3)c3nc(C)c(Cc4ccc(Cl)cc4F)n3n2)n[nH]1 [Gandotinib] | 7
CC(C)c1cc(-c2n[nH]c(=O)n2-c2ccc3c(ccn3C)c2)c(O)cc1O [Ganetespib] | 13.7
CN(C)C1CCN(C(=O)c2ccc(NC(=O)Nc3ccc(-c4nc(N5CCOCC5)nc(N5CCOCC5)n4)cc3)cc2)CC1 [Gedatolisib] | 6.9
COc1cc2ncnc(Nc3ccc(F)c(Cl)c3)c2cc1OCCCN1CCOCC1 [Gefitinib] | 3.5
Nc1ccn([C@@H]2O[C@H](CO)[C@@H](O)C2(F)F)c(=O)n1 [Gemcitabine] | 19.5
CCN(CC)Cc1ccc2cc(COC(=O)Nc3ccc(C(=O)NO)cc3)ccc2c1 [Givinostat] | 6
COc1cc2c(cc1-c1c(C)noc1C)ncc1[nH]c(=O)n([C@H](C)c3ccccn3)c12 [I-BET151] | 8.4
C=CC(=O)N1CCC[C@@H](n2nc(-c3ccc(Oc4ccccc4)cc3)c3c(N)ncnc32)C1 [Ibrutinib] | 0.6
C#Cc1cccc(Nc2ncnc3cc4c(cc23)OCCOCCOCCO4)c1 [Icotinib] | < 0
CC(=O)[C@]1(O)Cc2c(O)c3c(c(O)c2[C@@H](O[C@H]2C[C@H](N)[C@H](O)[C@H](C)O2)C1)C(=O)c1ccccc1C3=O [Idarubicin] | 7.2
COc1cc(C(=O)O)ccc1NC(=O)[C@@H]1N[C@@H](CC(C)(C)C)[C@](C#N)(c2ccc(Cl)cc2F)[C@H]1c1cccc(Cl)c1F [Idasanutlin] | < 0
O=C(Nc1ccncc1)C(=O)c1cn(Cc2ccc(Cl)cc2)c2ccccc12 [Indibulin] | 6.4
CC(C)NC[C@@H](C(=O)N1CCN(c2ncnc3c2[C@H](C)C[C@H]3O)CC1)c1ccc(Cl)cc1 [Ipatasertib] | < 0

Structure (SMILES) | drug sensitivity score
CC(C)C[C@H](NC(=O)CNC(=O)c1cc(Cl)ccc1Cl)B(O)O [Ixazomib] | 13.5
CCNCCS(=O)(=O)NC[C@@]1(c2ccccc2)SC(NC(=O)C(C)(C)C)=NN1C(=O)C(C)(C)C [Litronesib] | 8.5
NC(=O)N1CCC(CC(=O)N2CCC([C@H]3c4ncc(Br)cc4CCc4cc(Cl)cc(Br)c43)CC2)CC1 [Lonafarnib] | 5.5
CCNC(=O)c1noc(-c2cc(C(C)C)c(O)cc2O)c1-c1ccc(CN2CCOCC2)cc1 [Luminespib] | 15.6
O=C(Nc1cccc(NC(=O)c2cccc(O)c2O)c1)c1cccc(O)c1O [MST-312] | 11.6
CCN(CC)CCCC(C)Nc1c2ccc(Cl)cc2nc2ccc(OC)cc12 (stereo not given) [Mepacrine] | 18.8
S=c1[nH]cnc2nc[nH]c12 [Mercaptopurine] | 0.1
CN(Cc1cnc2nc(N)nc(N)c2n1)c1ccc(C(=O)N[C@@H](CCC(=O)O)C(=O)O)cc1 [Methotrexate] | < 0
CO[C@@H]1[C@H](N(C)C(=O)c2ccccc2)C[C@H]2O[C@]1(C)n1c3ccccc3c3c4c(c5c6ccccc6n2c5c31)C(=O)NC4 [Midostaurin] | 13.1
CNC(=O)c1nn(C)c2c1C(C)(C)Cc1cnc(Nc3ccc(N4CCN(C)CC4)cc3)nc1-2 [Milciclib] | 6.3
CCCCCCCCCCCCCCCCOP(=O)([O-])OCC[N+](C)(C)C [Miltefosine] | 13
O=C1c2c(O)ccc(O)c2C(=O)c2c(NCCNCCO)ccc(NCCNCCO)c21 [Mitoxantrone] | 5.5
CCS(=O)(=O)Nc1ccc(Oc2ccc(F)cc2F)c(-c2cn(C)c(=O)c3[nH]ccc23)c1 [Mivebresib] | 18.2
Nc1ccccc1NC(=O)c1ccc(CNc2nccc(-c3cccnc3)n2)cc1 [Mocetinostat] | 8
CCNC(=O)C[C@@H]1N=C(c2ccc(Cl)cc2)c2cc(OC)ccc2-n2c(C)nnc21 [Molibresib] | 6.8
N#CCNC(=O)c1ccc(-c2ccnc(Nc3ccc(N4CCOCC4)cc3)n2)cc1 [Momelotinib] | 8.3
Cc1cc(OCc2nnc(SC3CCCC3)n2-c2cccnc2)ccc1-c1ccc(S(C)(=O)=O)cc1 [NMS-873] | 7.7

Same assay, conditions: genetic perturbation: DOX-induced control shRNA

Structure (SMILES) | drug sensitivity score
CON(C)C(=O)N1N=C(c2cc(F)ccc2F)S[C@@]1(CCCN)c1ccccc1 [Filanesib] | 3
CCCCCCCCc1ccc(CCC(N)(CO)CO)cc1 [Fingolimod] | 5.3
O=c1[nH]c(=O)n([C@H]2C[C@H](O)[C@@H](CO)O2)cc1F [Floxuridine] | 0.6
O=C(NOCCO)c1ccc2cncn2c1Nc1ccc(I)cc1F [GDC-0623] | 10
CCOC(=O)CCNc1cc(N2CCc3ccccc3CC2)nc(-c2ccccn2)n1 [GSK-J4] | 2.2
Cc1cc(Nc2cc(CN3CCOCC3)c3nc(C)c(Cc4ccc(Cl)cc4F)n3n2)n[nH]1 [Gandotinib] | 2.7
CC(C)c1cc(-c2n[nH]c(=O)n2-c2ccc3c(ccn3C)c2)c(O)cc1O [Ganetespib] | 12.5
CN(C)C1CCN(C(=O)c2ccc(NC(=O)Nc3ccc(-c4nc(N5CCOCC5)nc(N5CCOCC5)n4)cc3)cc2)CC1 [Gedatolisib] | 11.7
COc1cc2ncnc(Nc3ccc(F)c(Cl)c3)c2cc1OCCCN1CCOCC1 [Gefitinib] | 3.5
Nc1ccn([C@@H]2O[C@H](CO)[C@@H](O)C2(F)F)c(=O)n1 [Gemcitabine] | 7.1
CCN(CC)Cc1ccc2cc(COC(=O)Nc3ccc(C(=O)NO)cc3)ccc2c1 [Givinostat] | 5.7
COc1cc2c(cc1-c1c(C)noc1C)ncc1[nH]c(=O)n([C@H](C)c3ccccn3)c12 [I-BET151] | 6.2
C=CC(=O)N1CCC[C@@H](n2nc(-c3ccc(Oc4ccccc4)cc3)c3c(N)ncnc32)C1 [Ibrutinib] | < 0
C#Cc1cccc(Nc2ncnc3cc4c(cc23)OCCOCCOCCO4)c1 [Icotinib] | 1
CC(=O)[C@]1(O)Cc2c(O)c3c(c(O)c2[C@@H](O[C@H]2C[C@H](N)[C@H](O)[C@H](C)O2)C1)C(=O)c1ccccc1C3=O [Idarubicin] | 6.9
COc1cc(C(=O)O)ccc1NC(=O)[C@@H]1N[C@@H](CC(C)(C)C)[C@](C#N)(c2ccc(Cl)cc2F)[C@H]1c1cccc(Cl)c1F [Idasanutlin] | < 0
O=C(Nc1ccncc1)C(=O)c1cn(Cc2ccc(Cl)cc2)c2ccccc12 [Indibulin] | 4.5
CC(C)NC[C@@H](C(=O)N1CCN(c2ncnc3c2[C@H](C)C[C@H]3O)CC1)c1ccc(Cl)cc1 [Ipatasertib] | 1.3

Structure (SMILES) | drug sensitivity score
CC(C)C[C@H](NC(=O)CNC(=O)c1cc(Cl)ccc1Cl)B(O)O [Ixazomib] | 7.8
CCNCCS(=O)(=O)NC[C@@]1(c2ccccc2)SC(NC(=O)C(C)(C)C)=NN1C(=O)C(C)(C)C [Litronesib] | 7.7
NC(=O)N1CCC(CC(=O)N2CCC([C@H]3c4ncc(Br)cc4CCc4cc(Cl)cc(Br)c43)CC2)CC1 [Lonafarnib] | 9
CCNC(=O)c1noc(-c2cc(C(C)C)c(O)cc2O)c1-c1ccc(CN2CCOCC2)cc1 [Luminespib] | 12.9
O=C(Nc1cccc(NC(=O)c2cccc(O)c2O)c1)c1cccc(O)c1O [MST-312] | 11.5
CCN(CC)CCCC(C)Nc1c2ccc(Cl)cc2nc2ccc(OC)cc12 (stereo not given) [Mepacrine] | 12.1
S=c1[nH]cnc2nc[nH]c12 [Mercaptopurine] | < 0
CN(Cc1cnc2nc(N)nc(N)c2n1)c1ccc(C(=O)N[C@@H](CCC(=O)O)C(=O)O)cc1 [Methotrexate] | < 0
CO[C@@H]1[C@H](N(C)C(=O)c2ccccc2)C[C@H]2O[C@]1(C)n1c3ccccc3c3c4c(c5c6ccccc6n2c5c31)C(=O)NC4 [Midostaurin] | 10.7
CNC(=O)c1nn(C)c2c1C(C)(C)Cc1cnc(Nc3ccc(N4CCN(C)CC4)cc3)nc1-2 [Milciclib] | 12.4
CCCCCCCCCCCCCCCCOP(=O)([O-])OCC[N+](C)(C)C [Miltefosine] | 5.2
O=C1c2c(O)ccc(O)c2C(=O)c2c(NCCNCCO)ccc(NCCNCCO)c21 [Mitoxantrone] | 7.6
CCS(=O)(=O)Nc1ccc(Oc2ccc(F)cc2F)c(-c2cn(C)c(=O)c3[nH]ccc23)c1 [Mivebresib] | 16.6
Nc1ccccc1NC(=O)c1ccc(CNc2nccc(-c3cccnc3)n2)cc1 [Mocetinostat] | 3.4
CCNC(=O)C[C@@H]1N=C(c2ccc(Cl)cc2)c2cc(OC)ccc2-n2c(C)nnc21 [Molibresib] | 5.3
N#CCNC(=O)c1ccc(-c2ccnc(Nc3ccc(N4CCOCC4)cc3)n2)cc1 [Momelotinib] | 6.8
Cc1cc(OCc2nnc(SC3CCCC3)n2-c2cccnc2)ccc1-c1ccc(S(C)(=O)=O)cc1 [NMS-873] | 5.9

These molecules were tested on Kuramochi in the same assay as above. Conditions: genetic perturbation: DOX-induced PTK7 shRNA knockdown.
Outline: as §1

Structure (SMILES) | drug sensitivity score
CON(C)C(=O)N1N=C(c2cc(F)ccc2F)S[C@@]1(CCCN)c1ccccc1 [Filanesib] | 10.3
CCCCCCCCc1ccc(CCC(N)(CO)CO)cc1 [Fingolimod] | 7.4
O=c1[nH]c(=O)n([C@H]2C[C@H](O)[C@@H](CO)O2)cc1F [Floxuridine] | 8.25
O=C(NOCCO)c1ccc2cncn2c1Nc1ccc(I)cc1F [GDC-0623] | 1.4
CCOC(=O)CCNc1cc(N2CCc3ccccc3CC2)nc(-c2ccccn2)n1 [GSK-J4] | 5.3
Cc1cc(Nc2cc(CN3CCOCC3)c3nc(C)c(Cc4ccc(Cl)cc4F)n3n2)n[nH]1 [Gandotinib] | 5.2
CC(C)c1cc(-c2n[nH]c(=O)n2-c2ccc3c(ccn3C)c2)c(O)cc1O [Ganetespib] | 11.1
CN(C)C1CCN(C(=O)c2ccc(NC(=O)Nc3ccc(-c4nc(N5CCOCC5)nc(N5CCOCC5)n4)cc3)cc2)CC1 [Gedatolisib] | 11.3
COc1cc2ncnc(Nc3ccc(F)c(Cl)c3)c2cc1OCCCN1CCOCC1 [Gefitinib] | 4.3
Nc1ccn([C@@H]2O[C@H](CO)[C@@H](O)C2(F)F)c(=O)n1 [Gemcitabine] | < 0
CCN(CC)Cc1ccc2cc(COC(=O)Nc3ccc(C(=O)NO)cc3)ccc2c1 [Givinostat] | 8.55
COc1cc2c(cc1-c1c(C)noc1C)ncc1[nH]c(=O)n([C@H](C)c3ccccn3)c12 [I-BET151] | 10.6
C=CC(=O)N1CCC[C@@H](n2nc(-c3ccc(Oc4ccccc4)cc3)c3c(N)ncnc32)C1 [Ibrutinib] | 2.2
C#Cc1cccc(Nc2ncnc3cc4c(cc23)OCCOCCOCCO4)c1 [Icotinib] | 0.6
CC(=O)[C@]1(O)Cc2c(O)c3c(c(O)c2[C@@H](O[C@H]2C[C@H](N)[C@H](O)[C@H](C)O2)C1)C(=O)c1ccccc1C3=O [Idarubicin] | 5.75
COc1cc(C(=O)O)ccc1NC(=O)[C@@H]1N[C@@H](CC(C)(C)C)[C@](C#N)(c2ccc(Cl)cc2F)[C@H]1c1cccc(Cl)c1F [Idasanutlin] | 0.95
O=C(Nc1ccncc1)C(=O)c1cn(Cc2ccc(Cl)cc2)c2ccccc12 [Indibulin] | 5.8
CC(C)NC[C@@H](C(=O)N1CCN(c2ncnc3c2[C@H](C)C[C@H]3O)CC1)c1ccc(Cl)cc1 [Ipatasertib] | 0.35

Structure (SMILES) | drug sensitivity score
CC(C)C[C@H](NC(=O)CNC(=O)c1cc(Cl)ccc1Cl)B(O)O [Ixazomib] | 3.55
CCNCCS(=O)(=O)NC[C@@]1(c2ccccc2)SC(NC(=O)C(C)(C)C)=NN1C(=O)C(C)(C)C [Litronesib] | 10.7
NC(=O)N1CCC(CC(=O)N2CCC([C@H]3c4ncc(Br)cc4CCc4cc(Cl)cc(Br)c43)CC2)CC1 [Lonafarnib] | 8.85
CCNC(=O)c1noc(-c2cc(C(C)C)c(O)cc2O)c1-c1ccc(CN2CCOCC2)cc1 [Luminespib] | 13.7
O=C(Nc1cccc(NC(=O)c2cccc(O)c2O)c1)c1cccc(O)c1O [MST-312] | 6.05
CCN(CC)CCCC(C)Nc1c2ccc(Cl)cc2nc2ccc(OC)cc12 (stereo not given) [Mepacrine] | 12.7
S=c1[nH]cnc2nc[nH]c12 [Mercaptopurine] | 6.45
CN(Cc1cnc2nc(N)nc(N)c2n1)c1ccc(C(=O)N[C@@H](CCC(=O)O)C(=O)O)cc1 [Methotrexate] | 0.45
CO[C@@H]1[C@H](N(C)C(=O)c2ccccc2)C[C@H]2O[C@]1(C)n1c3ccccc3c3c4c(c5c6ccccc6n2c5c31)C(=O)NC4 [Midostaurin] | 9
CNC(=O)c1nn(C)c2c1C(C)(C)Cc1cnc(Nc3ccc(N4CCN(C)CC4)cc3)nc1-2 [Milciclib] | 10.3
CCCCCCCCCCCCCCCCOP(=O)([O-])OCC[N+](C)(C)C [Miltefosine] | 4.9
O=C1c2c(O)ccc(O)c2C(=O)c2c(NCCNCCO)ccc(NCCNCCO)c21 [Mitoxantrone] | 2.7
CCS(=O)(=O)Nc1ccc(Oc2ccc(F)cc2F)c(-c2cn(C)c(=O)c3[nH]ccc23)c1 [Mivebresib] | 25.8
Nc1ccccc1NC(=O)c1ccc(CNc2nccc(-c3cccnc3)n2)cc1 [Mocetinostat] | 9.95
CCNC(=O)C[C@@H]1N=C(c2ccc(Cl)cc2)c2cc(OC)ccc2-n2c(C)nnc21 [Molibresib] | 8.65
N#CCNC(=O)c1ccc(-c2ccnc(Nc3ccc(N4CCOCC4)cc3)n2)cc1 [Momelotinib] | 0.75
Cc1cc(OCc2nnc(SC3CCCC3)n2-c2cccnc2)ccc1-c1ccc(S(C)(=O)=O)cc1 [NMS-873] | 8.15
